Source: US20120128614A1, “SOLVENT, SOLUTION, CLEANING COMPOSITION AND METHODS” (SEGETIS, INC., priority 2009, published 2012)

How the values were obtained:
[1] = Castor oil solubilization into water by cosolvent; conditions: about 25° C.
Experimental: Mixtures of water and castor oil ChemistryStore.com; Cayce, S.C.) are prepared at 10/90, 25/75, 50/50, 75/25 and 90/10 volume ratios. […] To assess the ability of Et-LGK to solubilize castor oil into water, Et-LGK is added to each of these mixtures with vigorous stirring in a 20 mL scintillation vial at about 25° C. until a clear solution is obtained.

[2] = Soya methyl esters solubilization into water by cosolvent; conditions: about 25° C.
Experimental: Mixtures of water and soya methyl esters (Stepan Chemical, Northfield, Ill.) are prepared at 10/90, 25/75, 50/50, 75/25 and 90/10 volume ratios.

[3] = Isobutyl isobutyrate (IBIB) solubilization into water by cosolvent; conditions: about 25° C.
Experimental: To assess the ability of Et-LGK to solubilize IBIB into water, Et-LGK is added to each of these mixtures with vigorous stirring in a 20 mL scintillation vial at about 25° C. until a clear solution is obtained.

[4] = 2,2,4-Trimethyl-1,3-pentanediol (2-methylpropanoate) (Texanol) solubilization into water by cosolvent; conditions: about 25° C.
Experimental: To assess the ability of Et-LGK to solubilize Texanol into water, Et-LGK is added to each of these mixtures with vigorous stirring in a 20 mL scintillation vial at about 25° C. until a clear solution is obtained.
The concentrations of these comparative solvents (in volume %) needed in each case to form a clear solution is reported in Table 6 as Comparative Samples G, H and I, respectively.

[5] = Miscibility of alkyl ketal esters with water; assay type: physicochemical; conditions: for miscibility with water: miscibility assessed at 25° C. unless stated otherwise
Source text: The term “miscible” and its variations (“miscibility”, etc.) are used herein as a synonym for “soluble”, as that term is defined above. A material may be fully or partially miscible in another. As used herein, a material said to be “miscible” in another, without further qualification, is miscible with that other material in all proportions, i.e., mixtures that contain only the two components form clear homogenous solutions in all weight ratios from 99.9:0.1 to 0.1:99.9. A material is said to be “highly miscible” in another material if it is soluble in the other material to the extent of at least 20 parts in 80 parts of the other material, and preferably is soluble in that other material to the extent of at least 50 parts in 50 parts of the other material. A “highly miscible” material may be soluble in the other material to the extent of 99.9 parts to 0.1 part of that other material and all lower proportions. A material is said to be “sparingly miscible” in another (or has “low miscibility” in another material) if is immiscible (as defined below) therein or otherwise not soluble in that other material to the extent of 20 parts in 80 parts of the other material. A sparingly miscible material may be soluble in that other material to the extent of no more than 10 parts in 90 parts of that other material, and may be soluble in that other material to the extent of no more than 5 parts in 95 parts of the other material. A material is said to be “immiscible” in another if it is not soluble by itself in that material to the extent of at least 1 part per 99 parts of the other material. Unless stated otherwise, miscibility is assessed at 25° C.

[6] = Bleach and peroxide stability evaluations with Et-LGK (GC/FID); assay type: physicochemical; conditions: after storing for 96 hours
Experimental: Examples 2-3 and a control (non-bleach) formulation are prepared by combining the ingredients indicated in Table 1 in a 20 ml borosilicate glass scintillation vial, followed by shaking vigorously to form a clear, colorless solution. All formulations are clear, colorless homogenous solutions after standing for three days at room temperature.
After storing for 96 hours, GC/FID analysis is performed to assess the stability of Examples 2 and 3 and Comparative Sample A. Three analyses are performed with each test sample. […] For Example 1, the Et-LGK concentration is about 9.4%, indicating a slight degradation of the material in the presence of the chlorine bleach.

[7] = Miscibility of alkyl ketal esters with organic compounds; assay type: physicochemical; conditions: methanol, ethanol, tetrahydrofuran, acetone, ethyl acetate, methylene chloride, toluene, cyclohexane, acetic acid, poly(propylene glycol), mineral, castor, canola, corn, sunflower oil
Source text: The term “miscible” and its variations (“miscibility”, etc.) are used herein as a synonym for “soluble”, as that term is defined above. A material may be fully or partially miscible in another. As used herein, a material said to be “miscible” in another, without further qualification, is miscible with that other material in all proportions, i.e., mixtures that contain only the two components form clear homogenous solutions in all weight ratios from 99.9:0.1 to 0.1:99.9. A material is said to be “highly miscible” in another material if it is soluble in the other material to the extent of at least 20 parts in 80 parts of the other material, and preferably is soluble in that other material to the extent of at least 50 parts in 50 parts of the other material. A “highly miscible” material may be soluble in the other material to the extent of 99.9 parts to 0.1 part of that other material and all lower proportions. A material is said to be “sparingly miscible” in another (or has “low miscibility” in another material) if is immiscible (as defined below) therein or otherwise not soluble in that other material to the extent of 20 parts in 80 parts of the other material. […] Unless stated otherwise, miscibility is assessed at 25° C.

[8] = Bleach stability evaluation with Et-LPK (GC-FID purity); assay type: physicochemical; conditions: 8 ml Et-LPK stirred overnight with 2 ml 6% sodium hypochlorite in water; organic phase analysed
Experimental: The purity of an Et-LPK sample is measured by GC-FID (Model No. 7890A Gas Chromatograph w/ Flame Ionization Detector; Agilent Technologies, Santa Clara, Calif.). In a 20 ml vial (borosilicate scintillation; VWR International, West Chester, Pa.), 2 ml of a 6% sodium hypochlorite (bleach; Clorox Co., Oakland, Calif.) in water is mixed with 8 ml of Et-LPK to form a mixture. The mixture is shaken vigorously to produce a nearly clear solution. The mixture is further stirred overnight on a magnetic stir plate with a magnetic stir bar. Upon standing, the mixture separates into two phases—an upper organic phase and a bottom aqueous phase. A sample of the organic phase is analyzed by GC-FID to determine the purity of the Et-LPK after mixing.

[9] = Et-LPK solubilization in Et-LGK/water mixtures (visual miscibility); assay type: physicochemical
Experimental: Several three-component mixtures of Et-LGK, water and Et-LPK are prepared by mixing the materials the above materials at room temperature in a 20 ml scintillation vial with shaking. The mixtures prepared are analyzed visually for miscibility. Clear mixture are considered to be “miscible”, and mixtures, which are cloudy or form two or more distinct phases are considered to be “immiscible” on this test.

## COC(C)COC(C)CO (centres unmarked) [DPGMME, dipropylene glycol monomethyl ether]
[1]; 10/90 Water/castor oil ratio by volume
  Required amount of cosolvent to obtain clear solution: 55.9 vol.-%
[1]; 25/75 Water/castor oil ratio by volume
  Required amount of cosolvent to obtain clear solution: 65.4 vol.-%
[1]; 50/50 Water/castor oil ratio by volume
  Required amount of cosolvent to obtain clear solution: 73.5 vol.-%
[1]; 75/25 Water/castor oil ratio by volume
  Required amount of cosolvent to obtain clear solution: 78.9 vol.-%
[1]; 90/10 Water/castor oil ratio by volume
  Required amount of cosolvent to obtain clear solution: 80.6 vol.-%
[2]; 10/90 Water/soya methyl ester ratio by volume
  Required amount of cosolvent to obtain clear solution: 48.3 vol.-%
[2]; 25/75 Water/soya methyl ester ratio by volume
  Required amount of cosolvent to obtain clear solution: 62.6 vol.-%
[2]; 50/50 Water/soya methyl ester ratio by volume
  Required amount of cosolvent to obtain clear solution: 73.6 vol.-%
[2]; 75/25 Water/soya methyl ester ratio by volume
  Required amount of cosolvent to obtain clear solution: 78.3 vol.-%
[2]; 90/10 Water/soya methyl ester ratio by volume
  Required amount of cosolvent to obtain clear solution: 78.3 vol.-%
[3]; 10/90 Water/IBIB ratio by volume
  Required amount of cosolvent to obtain clear solution: 54.5 vol. %
[3]; 25/75 Water/IBIB ratio by volume
  Required amount of cosolvent to obtain clear solution: 53.3 vol. %
[3]; 50/50 Water/IBIB ratio by volume
  Required amount of cosolvent to obtain clear solution: 58.9 vol. %
[3]; 75/25 Water/IBIB ratio by volume
  Required amount of cosolvent to obtain clear solution: 60.0 vol. %
[3]; 90/10 Water/IBIB ratio by volume
  Required amount of cosolvent to obtain clear solution: 62.5 vol. %
[4]; 10/90 Water/Texanol ratio by volume
  Required amount of cosolvent to obtain clear solution: 44.4 vol.-%
[4]; 25/75 Water/Texanol ratio by volume
  Required amount of cosolvent to obtain clear solution: 50.9 vol.-%
[4]; 50/50 Water/Texanol ratio by volume
  Required amount of cosolvent to obtain clear solution: 55.2 vol.-%
[4]; 75/25 Water/Texanol ratio by volume
  Required amount of cosolvent to obtain clear solution: 54.1 vol.-%
[4]; 90/10 Water/Texanol ratio by volume
  Required amount of cosolvent to obtain clear solution: 51.6 vol.-%

## CCOC(=O)CC1(C)OCC(CO)O1 (centres unmarked) [Et-AcAcGK]
[5]
  miscibility with water: miscible with water in all proportions

## CCOC(=O)CCC1(C)OCCO1 [Et-LEK]
[5]
  miscible in water to the extent of: about 5 parts per 95 parts of water

## CCOC(=O)CCC1(C)OCC(CO)O1 (centres unmarked) [Et-LGK]
[5]
  miscibility with water: miscible in water in all proportions
[6]; control (non-bleach) formulation
  Et-LGK concentration (GC/FID): about 10%
[6]; formulation with 6% sodium hypochlorite solution (Table 1 'Example 1')
  Et-LGK concentration (GC/FID): about 9.4%
[6]; formulation with hydrogen peroxide (Table 1 'Example 2')
  Et-LGK concentration (GC/FID): the same as the control

## CCOC(=O)CCC1(C)OCC(C)O1 (centres unmarked) [Et-LPK]
[5]
  miscible in water to the extent of: about 2.5 parts in 97.5 parts of water
[7]
  dissolves or is miscible with organic compounds to the extent of: at least 20 parts of the organic compound in 80 parts of ethyl-LPK
[8]
  change in purity of Et-LPK (GC-FID) versus initial purity: little to no change in the purity
[9]; Mixture 18
  Et-LPK concentration obtained in a miscible mixture with water and Et-LGK: ~55 wt. %
[9]; at the 10.9% level, no Et-LGK
  miscibility of Et-LPK in water: immiscible

## COC(=O)CC1(C)OCC(CO)O1 (centres unmarked) [Me-AcAcGK]
[5]
  miscibility with water: miscible with water in all proportions

## COC(=O)CCC1(C)OCC(CO)O1 (centres unmarked) [Me-LGK]
[5]
  miscibility with water: miscible with water in all proportions

## CCCCOC(=O)CCC1(C)OCC(CO)O1 (centres unmarked) [n-butyl-LGK]
[5]
  miscible with water to the extent of: about 1 part per 99 parts water

## CCCOC(=O)CCC1(C)OCC(CO)O1 (centres unmarked) [n-propyl-LGK]
[5]
  miscible with water to the extent of: about 1 part per 99 parts water
